Laboratory results as given in patent EP3006939A1, “Histidine-rich Glycoprotein as a marker for hepatic Farnesoid X receptor activation” (Gilead Sciences, Inc., priority 2014, dated 2016).
“And” between values parts separate entries of the source, which are not always exact repeats. Equal entries are not always repeated. “Also recorded” adds a separate entry of the source. Where two headings read alike, the source gives them in different places.

Legend:
[1] = test system: HepaRG cells; experiment: Microarray experiment, genome wide mRNA array analysis; assay type: cell-based, human; conditions: 1 µM, 24 hours, vs DMSO vehicle; for Fold changes to "DMSO", TBP mRNA: control gene
Experimental: HepaRG cells were obtained plated from Biopredic International (# HPR203-MW96, Rennes, France) and cultivated in 6-well plates using the media and protocol supplied by the manufacturer. Cells were cultivated in induction medium (Biopredic International) with 1 µM of PX20350 (E. Hambruch et al., J. Pharmacol. Exp. Ther. 2012, 343, 556) diluted from a 20 mM stock solution in DMSO or DMSO as a vehicle control for 24 hours. Total RNA was isolated following the instructions of the RNeasy 96 RNA isolation kit (Qiagen, Hilde, Germany) and 200 ng total RNA used for a genome wide mRNA array analysis done as a fee for service at the Genomics & Pro-teomics Core Facility of the German Research Facility using the human Sentrix-6 V3 (4213572043) array from Illumina and standard experimental kits and protocols supplied by the manufacturer (Illumina Inc. San Diego U.S.A.).
This upregulation was similar to that (2.7 fold) of the known direct FXR target gene NR0B2 (SHP, Small heterodimer partner). In comparison, TBP mRNA (TATA box binding protein) was not changed in relative abundance (Table 1).

[2] = target: T1, human FXR (Homo sapiens, UniProt Q96RI1); experiment: Luciferase reporter assay with human HRG promoter fragment in Huh7 cells co-transfected with an FXR expression plasmid; assay type: cell-based; conditions: FXR exogenously expressed, 1 µM, 16 h
T1 sequence (Q96RI1 1-486): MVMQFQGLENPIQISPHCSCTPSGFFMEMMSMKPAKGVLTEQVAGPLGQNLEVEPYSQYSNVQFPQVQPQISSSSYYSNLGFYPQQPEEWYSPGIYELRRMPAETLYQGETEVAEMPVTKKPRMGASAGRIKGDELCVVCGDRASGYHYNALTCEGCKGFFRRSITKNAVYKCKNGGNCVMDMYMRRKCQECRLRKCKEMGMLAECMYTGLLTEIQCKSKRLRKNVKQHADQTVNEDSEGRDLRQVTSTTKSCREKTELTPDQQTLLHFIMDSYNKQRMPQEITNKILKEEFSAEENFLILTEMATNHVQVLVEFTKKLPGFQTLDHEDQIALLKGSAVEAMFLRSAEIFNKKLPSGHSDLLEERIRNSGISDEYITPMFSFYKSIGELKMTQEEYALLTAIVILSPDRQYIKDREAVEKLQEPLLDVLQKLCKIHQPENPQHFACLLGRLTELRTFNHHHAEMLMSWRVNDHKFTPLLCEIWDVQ
Source text: A human HRG promoter fragment was cloned as a Xhol-Hindlll fragment (from position -1,973 till +8 with respect to the mRNA starting nucleotide at +1) using the oligonucleotides […] (SEQ ID No. 10) and […] (SEQ ID No. 11) into the Xhol and Hindlll sites of pGL2basic (Promega, Madison, U.S.A.). The IR1 and ER2 sites were mutated using the primers of Table 3. Table 3: Primer sequences
The reporter plasmids pGL2-FXR-RE (FXR-RE), pGL2-PHRG (wt), pGL2-PHRG-IR1mut (IR1mut) and pGL2-PHRG-ER2mut (ER2mut) and pGL2-PHRG-IR1/ER2 (DM) (each 50 ng/well), were co-transfected with pTRex-Dest30-hFXR (20 ng/well) and pCMV-RL (5 ng/well, constitutively expressing the Renilla luciferase under control of a CMV promotor as an internal control) into Huh7 cells using lipofection with Polyethylenimine and cultivated in presence or absence of 1 µM of the FXR agonist PX20606 or DMSO as a vehicle control for 16 h followed by cell lysis and determination of luciferase activities as described in U. Deuschle et al., PLoS One 2012, 7, e43044.

[3] = test system: Huh7 human hepatoma cells; experiment: Induction of HRG and SHP mRNAs, RT-qPCR normalized to TBP; assay type: cell-based; conditions: Huh-7, 16 hours
Experimental: (§1) Huh7 (# JCRB0403) cells were obtained from the Health Science Research Resources Bank, Osaka, Japan. Cells were cultivated in MEM containing 8.6% FCS supplemented with 2 mM L-Alanyl-L-Glutamine (all purchased via Sigma-Aldrich, Munich, Germany) in presence of 1 µM of PX20606 or DMSO as a vehicle for 16 hours. Total RNA from cells grown in 96 well tissue plates (Huh7, HepaRG and 3D human liver microtisues) were isolated following the instructions of the RNeasy 96 RNA isolation kit (Qiagen, Hilde, Germany) and cDNA's were synthesized from 1/25th of the isolated total RNA from one 96 well using Superscript II reverse Transcriptase (Life Technologies, Carlsbad, U.S.A.). Quantitative PCR was performed and analyzed using Absolute QPCR Rox Mix (Life Technologies, Carlsbad, U.S.A.) and a 384-format ABI 7900HT Sequence Detection System (Applied Biosystems, Darmstadt, Germany). Gene expression was expressed in arbitrary units and normalized relative to the housekeeping gene TATA box binding protein (TBP). The TBP normalized mRNA levels were plotted for HRG and SHP in Figure 1 (number of replicates n = 6). Table 2: Primer and probe sequences.

[4] = test system: human primary Upcyte® Hepatocytes; experiment: Induction of HRG transcription, RT-qPCR normalized to TBP; assay type: cell-based; conditions: Hepatocyte, 24 hours
Experimental: as §1, with “Table 2: Primer and probe sequences.” left out
Upcyte® hepatocytes (Cat# UH0-000-KA00 donor 10-03) derived from primary hepatocytes of a donor were cultivated in 96 well plates in high performance medium (Medicyte, Heidel-berg, Germany). Isolation of total RNA followed by quantitative qPCR was done as described in Example 2.

[5] = test system: HepG2-FXR5 cells; experiment: as above; assay type: cell-based; conditions: Homo sapiens, 24 hours
Experimental: as §1, with “The TBP normalized mRNA levels were plotted for HRG and SHP in Figure 1 (number of replicates n = 6). Table 2: Primer and probe sequences.” left out
HepG2-FXR5 cells (described in U. Deuschle et al., PLoS One. 2012, 7, e43044) were cultivated in 96 well plates in RPMI medium supplemented with 8.6% FCS and supplemented with 2 mM L-Alanyl-L-Glutamine (all purchased via Sigma-Aldrich, Munich, Germany). Isolation of total RNA followed by quantitative qPCR was done as described in Example 2.

[6] = test system: HepG2-FXR5 cells; experiment: Detection of secreted HRG in cell supernatant by Ni-NTA agarose collection and Western blot; assay type: cell-based, human; conditions: 1 µM, 48 hours, vs DMSO, Western blot
Experimental: HepG2-FXR5 cells (described in U. Deuschle et al., PLoS One. 2012, 7, e43044) were cultivated in T75 flasks in RPMI medium supplemented with 0,2% BSA, 2 mM L-Alanyl-L-Glutamine (Sigma-Aldrich, Munich, Germany) and 1x Insulin-Transferrin-Selenium (#51500-056, Life Technolgies, Carlsbad, USA). Each 10 ml supernatant from cells grown in presence of 1 µM PX20606 or DMSO as vehicle for 48 hours were mixed with 100 µL Ni-NTA agarose slurry (#1018240, Qiagen, Hilden, Germany) for 1 h, the slurry was collected by centrifugation and after 3 washes with 10 mL 1xPBS resuspended in 100 µL SDS sample buffer. Western blot was performed (as described in U. Deuschle et al., PLoS One 2012, 7, e43044) and HRG detected using polyclonal mouse-anti human HRG antibodies (ab67807, Abcam, Cambridge, UK).

[7] = read-out: HRG mRNA upregulated compared to DMSO
[8] = read-out: known direct FXR target gene (SHP mRNA) upregulated compared to DMSO

Fold changes to "DMSO", NR0B2 (SHP) mRNA [1] [fold] | Fold changes to "DMSO", HRG mRNA ([1]; 1440 min) | Fold changes to "DMSO", TBP mRNA ([1]; 1440 min) | activity of HRG promoter with mutated ER-2 site, luciferase reporter [2] | activity of HRG promoter with mutated IR-1 site, luciferase reporter [2] | activity of HRG promoter (wt, -1973 to +8) luciferase reporter ([2]; vs DMSO) | Compound | Fold changes to "DMSO", TBP mRNA [1] | fold induction at 1 µM [3, 7] | fold induction at 1 µM [3, 8] | fold induction at 1 µM [4, 7] | fold induction at 1 µM [4, 8] | fold induction at 1 µM [5, 7] | fold induction at 1 µM [5, 8] | amount of secreted HRG [6]
2.7 | 2 fold and 2.0 fold | 1.0 |  |  |  | CN(Cc1ccc(C(=O)O)cc1)c1ccc(OCc2c(-c3c(Cl)cccc3Cl)noc2C2CC2)nc1C(F)(F)F [PX20350] | not changed |  |  |  |  |  |  | 
 |  |  | loss of FXR/FXR agonist responsitivity | reduce the activity | active | O=C(O)c1ccc(C2CC2c2ccc(OCc3c(-c4c(Cl)cccc4Cl)noc3C3CC3)cc2Cl)cc1 (centres unmarked) [PX20606, 4-(2-(2-chloro-4-((5-cyclopropyl-3-(2,6-dichlorophenyl)isoxazol-4-yl)methoxy)phenyl)cyclopropyl)benzoic acid] |  | ~3.5 | ~4 | ~11 | ~10 | ~20 | ~6 | increased; also recorded: up-regulated
